Data published in the OligoGym collection.
Values joined by “and” are separate entries in the source; they are usually repeats but may differ in a detail not shown here. Equal values may be shown once. HELM strings list units from the 5' end as sugar, base in round brackets, then linkage (d deoxyribose, r ribose, m 2'-O-methyl, p phosphodiester). Methylation of C is not given here. [moe] = 2'-O-(2-methoxyethyl) (MOE); [cEt] = constrained ethyl (cEt); [sp] = phosphorothioate linkage

Biological target: HBV
Settings: ASO

Substance	target mRNA inhibition (HepG2, 0.07 µM)	other results
RNA1{[moe](G)[sp].[moe](T)[sp].[moe](G)[sp].d(A)[sp].d(A)[sp].d(G)[sp].d(C)[sp].d(G)[sp].d(A)[sp].d(A)[sp].d(G)[sp].d(T)[sp].[moe](G)[sp].[moe](C)[sp].[moe](A)[sp].[moe](C)[sp].[moe](A)}$$$$V2.0	71% and 63%	–
RNA1{[moe](G)[sp].[moe](T)[sp].[moe](G)[sp].d(C)[sp].d(A)[sp].d(G)[sp].d(A)[sp].d(G)[sp].d(G)[sp].d(T)[sp].d(G)[sp].d(A)[sp].[moe](A)[sp].[moe](G)[sp].[moe](C)[sp].[moe](G)[sp].[moe](A)}$$$$V2.0	67% and 62%	–
RNA1{[moe](G)[sp].[moe](T)[sp].[moe](T)[sp].[moe](C)[sp].[moe](C)[sp].d(G)[sp].d(C)[sp].d(A)[sp].d(G)[sp].d(T)[sp].d(A)[sp].d(T)[sp].d(G)[sp].d(G)[sp].[moe](A)[sp].[moe](T)}$$$$V2.0	54% and 51%	–
RNA1{[moe](G)[sp].[moe](T)[sp].[moe](T)[sp].d(C)[sp].d(C)[sp].d(G)[sp].d(C)[sp].d(A)[sp].d(G)[sp].d(T)[sp].d(A)[sp].d(T)[sp].[moe](G)[sp].[moe](G)[sp].[moe](A)[sp].[moe](T)[sp].[moe](C)}$$$$V2.0	60% and 54%	–
RNA1{[moe](G)[sp].[moe](T)[sp].[moe](T)[sp].d(C)[sp].d(C)[sp].d(G)[sp].d(C)[sp].d(A)[sp].d(G)[sp].d(T)[sp].d(A)[sp].d(T)[sp].[moe](G)[sp].[moe](G)[sp].[moe](A)[sp].[moe](T)}$$$$V2.0	51% and 65%	–
RNA1{[moe](G)[sp].[moe](T)[sp].[moe](T)[sp].d(C)[sp].d(C)[sp].d(G)[sp].d(C)[sp].d(A)[sp].d(G)[sp].d(T)[sp].d(A)[sp].d(T)[sp].d(G)[sp].[cEt](G)[sp].[cEt](A)[sp].[cEt](T)}$$$$V2.0	52% and 67%	–
RNA1{[moe](T)[sp].[cEt](C)[sp].[cEt](C)[sp].d(G)[sp].d(C)[sp].d(A)[sp].d(G)[sp].d(T)[sp].d(A)[sp].d(T)[sp].d(G)[sp].d(G)[sp].d(A)[sp].[cEt](T)[sp].[cEt](C)[sp].[moe](G)}$$$$V2.0	79% and 76%	–
RNA1{[moe](T)[sp].[cEt](G)[sp].[cEt](A)[sp].d(A)[sp].d(C)[sp].d(A)[sp].d(A)[sp].d(A)[sp].d(T)[sp].d(G)[sp].d(G)[sp].d(C)[sp].d(A)[sp].[cEt](C)[sp].[cEt](T)[sp].[moe](A)}$$$$V2.0	71% and 59%	–
RNA1{[moe](T)[sp].[cEt](G)[sp].[cEt](A)[sp].d(A)[sp].d(G)[sp].d(C)[sp].d(G)[sp].d(A)[sp].d(A)[sp].d(G)[sp].d(T)[sp].d(G)[sp].d(C)[sp].[cEt](A)[sp].[cEt](C)[sp].[moe](A)}$$$$V2.0	69% and 77%	–
RNA1{[moe](T)[sp].[cEt](G)[sp].[cEt](A)[sp].d(G)[sp].d(A)[sp].d(G)[sp].d(A)[sp].d(A)[sp].d(G)[sp].d(T)[sp].d(C)[sp].d(C)[sp].d(A)[sp].[cEt](C)[sp].[cEt](C)[sp].[moe](A)}$$$$V2.0	53% and 49%	–
RNA1{[moe](T)[sp].[cEt](G)[sp].[cEt](C)[sp].d(A)[sp].d(G)[sp].d(A)[sp].d(G)[sp].d(G)[sp].d(T)[sp].d(G)[sp].d(A)[sp].d(A)[sp].d(G)[sp].[cEt](C)[sp].[cEt](G)[sp].[moe](A)}$$$$V2.0	71% and 73%	–
RNA1{[moe](T)[sp].[cEt](G)[sp].[cEt](G)[sp].d(A)[sp].d(G)[sp].d(C)[sp].d(C)[sp].d(A)[sp].d(C)[sp].d(C)[sp].d(A)[sp].d(G)[sp].d(C)[sp].[cEt](A)[sp].[cEt](G)[sp].[moe](G)}$$$$V2.0	57% and 53%	–
RNA1{[moe](T)[sp].[cEt](G)[sp].d(C)[sp].d(A)[sp].d(G)[sp].d(A)[sp].d(G)[sp].d(G)[sp].d(T)[sp].d(G)[sp].d(A)[sp].d(A)[sp].[cEt](G)[sp].[moe](C)[sp].[cEt](G)[sp].[moe](A)}$$$$V2.0	77% and 86%	target mRNA inhibition (HepG2, 0.0092593 µM): 5%; target mRNA inhibition (HepG2, 0.0277778 µM): 39%; target mRNA inhibition (HepG2, 0.0833333 µM): 70%; target mRNA inhibition (HepG2, 0.25 µM): 85%
RNA1{[moe](T)[sp].[cEt](G)[sp].d(G)[sp].d(A)[sp].d(G)[sp].d(C)[sp].d(C)[sp].d(A)[sp].d(C)[sp].d(C)[sp].d(A)[sp].d(G)[sp].[cEt](C)[sp].[moe](A)[sp].[cEt](G)[sp].[moe](G)}$$$$V2.0	59% and 42%	–
RNA1{[moe](T)[sp].[cEt](T)[sp].[cEt](A)[sp].d(T)[sp].d(G)[sp].d(C)[sp].d(C)[sp].d(T)[sp].d(A)[sp].d(C)[sp].d(A)[sp].d(G)[sp].d(C)[sp].[cEt](C)[sp].[cEt](T)[sp].[moe](C)}$$$$V2.0	48% and 23%	–
RNA1{[moe](T)[sp].[moe](A)[sp].[moe](T)[sp].[moe](G)[sp].[moe](C)[sp].d(C)[sp].d(T)[sp].d(A)[sp].d(C)[sp].d(A)[sp].d(G)[sp].d(C)[sp].d(C)[sp].d(T)[sp].[moe](C)[sp].[moe](C)}$$$$V2.0	47% and 42%	–

Substance	target mRNA inhibition (HepG2, 0.07 µM)	other results
RNA1{[moe](T)[sp].[moe](C)[sp].[moe](C)[sp].d(G)[sp].d(C)[sp].d(A)[sp].d(G)[sp].d(T)[sp].d(A)[sp].d(T)[sp].d(G)[sp].d(G)[sp].[moe](A)[sp].[moe](T)[sp].[moe](C)[sp].[moe](G)}$$$$V2.0	65% and 72%	–
RNA1{[moe](T)[sp].[moe](G)[sp].[moe](A)[sp].[moe](A)[sp].[moe](G)[sp].d(C)[sp].d(G)[sp].d(A)[sp].d(A)[sp].d(G)[sp].d(T)[sp].d(G)[sp].d(C)[sp].d(A)[sp].[moe](C)[sp].[moe](A)[sp].[moe](C)}$$$$V2.0	13% and 38%	–
RNA1{[moe](T)[sp].[moe](G)[sp].[moe](A)[sp].[moe](G)[sp].[moe](G)[sp].d(C)[sp].d(A)[sp].d(T)[sp].d(A)[sp].d(G)[sp].d(C)[sp].d(A)[sp].d(G)[sp].d(C)[sp].[moe](A)[sp].[moe](G)[sp].[moe](G)}$$$$V2.0	45% and 44%	–
RNA1{[moe](T)[sp].[moe](G)[sp].[moe](A)[sp].d(A)[sp].d(G)[sp].d(C)[sp].d(G)[sp].d(A)[sp].d(A)[sp].d(G)[sp].d(T)[sp].d(G)[sp].[moe](C)[sp].[moe](A)[sp].[moe](C)[sp].[moe](A)[sp].[moe](C)}$$$$V2.0	74% and 60%	–
RNA1{[moe](T)[sp].[moe](G)[sp].[moe](A)[sp].d(G)[sp].d(G)[sp].d(C)[sp].d(A)[sp].d(T)[sp].d(A)[sp].d(G)[sp].d(C)[sp].d(A)[sp].[moe](G)[sp].[moe](C)[sp].[moe](A)[sp].[moe](G)}$$$$V2.0	60% and 49%	–
RNA1{[moe](T)[sp].[moe](G)[sp].[moe](C)[sp].[moe](A)[sp].[moe](G)[sp].[moe](A)[sp].d(G)[sp].d(G)[sp].d(T)[sp].d(G)[sp].d(A)[sp].d(A)[sp].d(G)[sp].d(C)[sp].d(G)[sp].[moe](A)[sp].[moe](A)}$$$$V2.0	74% and 63%	–
RNA1{[moe](T)[sp].[moe](G)[sp].[moe](C)[sp].[moe](A)[sp].[moe](G)[sp].d(A)[sp].d(G)[sp].d(G)[sp].d(T)[sp].d(G)[sp].d(A)[sp].d(A)[sp].d(G)[sp].d(C)[sp].[moe](G)[sp].[moe](A)}$$$$V2.0	61% and 52%	–
RNA1{[moe](T)[sp].[moe](G)[sp].d(A)[sp].d(A)[sp].d(G)[sp].d(C)[sp].d(G)[sp].d(A)[sp].d(A)[sp].d(G)[sp].d(T)[sp].[moe](G)[sp].[moe](C)[sp].[moe](A)[sp].[moe](C)[sp].[moe](A)}$$$$V2.0	69% and 54%	–
RNA1{[moe](T)[sp].[moe](G)[sp].d(C)[sp].d(A)[sp].d(G)[sp].d(A)[sp].d(G)[sp].d(G)[sp].d(T)[sp].d(G)[sp].d(A)[sp].[moe](A)[sp].[moe](G)[sp].[moe](C)[sp].[moe](G)[sp].[moe](A)}$$$$V2.0	46% and 36%	–
RNA1{[moe](T)[sp].[moe](G)[sp].d(G)[sp].d(A)[sp].d(G)[sp].d(C)[sp].d(C)[sp].d(A)[sp].d(C)[sp].d(C)[sp].d(A)[sp].[moe](G)[sp].[moe](C)[sp].[moe](A)[sp].[moe](G)[sp].[moe](G)}$$$$V2.0	29% and 41%	–
RNA1{[moe](T)[sp].[moe](T)[sp].[moe](A)[sp].[moe](T)[sp].[moe](G)[sp].d(C)[sp].d(C)[sp].d(T)[sp].d(A)[sp].d(C)[sp].d(A)[sp].d(G)[sp].d(C)[sp].d(C)[sp].[moe](T)[sp].[moe](C)}$$$$V2.0	53% and 42%	–
RNA1{[moe](T)[sp].[moe](T)[sp].[moe](A)[sp].d(T)[sp].d(G)[sp].d(C)[sp].d(C)[sp].d(T)[sp].d(A)[sp].d(C)[sp].d(A)[sp].d(G)[sp].[moe](C)[sp].[moe](C)[sp].[moe](T)[sp].[moe](C)[sp].[moe](C)}$$$$V2.0	61% and 54%	–
RNA1{[moe](T)[sp].[moe](T)[sp].[moe](A)[sp].d(T)[sp].d(G)[sp].d(C)[sp].d(C)[sp].d(T)[sp].d(A)[sp].d(C)[sp].d(A)[sp].d(G)[sp].d(C)[sp].[cEt](C)[sp].[cEt](T)[sp].[cEt](C)}$$$$V2.0	37% and 53%	–
RNA1{[moe](T)[sp].[moe](T)[sp].[moe](C)[sp].[moe](C)[sp].[moe](G)[sp].d(C)[sp].d(A)[sp].d(G)[sp].d(T)[sp].d(A)[sp].d(T)[sp].d(G)[sp].d(G)[sp].d(A)[sp].[moe](T)[sp].[moe](C)[sp].[moe](G)}$$$$V2.0	65% and 59%	–
RNA1{[moe](T)[sp].[moe](T)[sp].[moe](C)[sp].[moe](C)[sp].d(G)[sp].d(C)[sp].d(A)[sp].d(G)[sp].d(T)[sp].d(A)[sp].d(T)[sp].d(G)[sp].d(G)[sp].[moe](A)[sp].[moe](T)[sp].[moe](C)}$$$$V2.0	43% and 49%	–
RNA1{[moe](T)[sp].[moe](T)[sp].[moe](C)[sp].d(C)[sp].d(G)[sp].d(C)[sp].d(A)[sp].d(G)[sp].d(T)[sp].d(A)[sp].d(T)[sp].d(G)[sp].[moe](G)[sp].[moe](A)[sp].[moe](T)[sp].[moe](C)}$$$$V2.0	53% and 50%	–
